The results in this text go back to patent US9221836B2, “Heterocyclic compound and use thereof” (TAKEDA PHARMACEUTICAL COMPANY LIMITED, priority 2008, dated 2015).

In experiment [1] the target is T1, plasma renin activity (PRA) (Macaca fascicularis, UniProt Q6DLS0).
T1 sequence (Q6DLS0 67-406): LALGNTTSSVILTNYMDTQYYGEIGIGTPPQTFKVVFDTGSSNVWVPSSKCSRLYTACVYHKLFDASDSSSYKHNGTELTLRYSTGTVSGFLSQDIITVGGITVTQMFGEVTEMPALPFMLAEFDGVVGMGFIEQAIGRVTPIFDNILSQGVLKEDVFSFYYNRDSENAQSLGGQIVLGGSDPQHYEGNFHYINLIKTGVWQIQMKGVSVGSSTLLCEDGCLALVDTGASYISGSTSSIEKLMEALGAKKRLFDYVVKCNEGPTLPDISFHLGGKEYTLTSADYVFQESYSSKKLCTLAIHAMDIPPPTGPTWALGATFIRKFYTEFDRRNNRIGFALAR
The conditions noted are these: male Macaca fascicularis; 1 mg/kg orally in 0.5% methylcellulose; plasma 4 hr after administration; amended with vehicle group.
Description: Male macaca fascicularis was used. The blood samples were collected from femoral vein at the time points of before drug administration and 4 hr after drug administration (EDTA-2Na^+ at final concentration of 7.5 mmol/L was used as an anticoagulant). […] The drug was dissolved in 0.5% methylcellulose and orally administered at 1 mg/kg. […] PRA was calculated by the following formula.
X37° C.: angiotensin I concentration for incubation at 37° C.
X4° C.: angiotensin I concentration for incubation at 4° C.
PRA at each time point after drug administration was calculated as percentage relative to the value before administration and taken as PRA %. The renin inhibitory activity of the drug administration group was calculated as an inhibitory rate by amending the PRA % at each time point after drug administration with PRA % of the vehicle group.

For the next experiment, the target named is T2, Human renin (Homo sapiens, UniProt P00797).
T2 sequence (P00797 67-406): T1 sequence (Q6DLS0 67-406) with A2T, L148I, A169S
Nature of the experiment: Human renin inhibition, angiotensin I quantified by EIA. Conditions: read-out: Human renin inhibitory activity: inhibitory activity (%) at 0.1 μM.

Numbering of substitutions follows the chain as printed.

Description for Human renin: (6) Measurement of Renin Inhibition Value
As a substrate for renin activity measurement, the angiotensinogen mentioned in (5) above was used. 1 μl each of the test compound (containing 100% DMSO) was added to each well of a 384-well plate (ABgene). Renin was diluted with a buffer solution for reaction (20 mM sodium phosphate (pH 7.4)) to a concentration of 57 pM, and 14 μl each of the dilution was added to each well. The dilution was left to stand at 37° C. for 10 min, and then 5 μl of each of a 6 μM solution of substrate angiotensinogen was added to each well to initiate the reaction. […] The amount of angiotensin I produced by an enzyme reaction was quantified by Enzyme Immuno Assay (EIA) described below.
Anti-angiotensin I antibody (Peninsula Laboratories Inc.) diluted 5,000-fold with PBS was added to each well of a 384 well black plate (Nalge Nunc International Co., Ltd.) by 25 μl, and left standing overnight at 4° C. to immobilize the antibody in the plate. The antibody solution was removed, PBS solution (100 μl) containing 1% BSA was added to each well, and the mixture was left standing at room temperature for 2 hr for blocking. The blocking solution was removed, and each well was washed 5 times with 100 μl of 0.05% Tween20-PBS. […] Then, a biotinated angiotensin I solution (AnaSpec, 15 μl) prepared to 1.6 nM with a buffer [20 mM tris-hydrochloric acid (pH 7.4), 150 mM sodium chloride, 0.01% BSA, 0.05% Tween20] was added to each well, mixed with a plate mixer and left standing at room temperature for 1 hr. The solutions were removed from each well, and each well was washed 5 times with 100 μl of 0.05% Tween20-PBS. Horseradish peroxydase Streptavidin (PIERCE Biotecnology inc., 25 μl) diluted to 100 ng/ml with a buffer [20 mM tris-hydrochloric acid (pH 7.4), 150 mM sodium chloride, 0.1% BSA, 0.05% Tween 20] was added to each well and the mixture was left standing at room temperature for 30 min. The solutions were removed from each well, and each well was washed 5 times with 100 μl of 0.05% Tween20-PBS. SuperSignal ELISA femto Maximum Sensitivity Substrate (PIERCE Biotecnology Inc.) was added by 25 μl and luminescence intensity was measured by EnVision (Perkin Elmer Inc.). An analytical curve was drawn from the luminescence intensity of wells containing an angiotensin I standard solution, and the amount of angiotensin I produced by an enzyme reaction was calculated and used as an index of renin activity.

Take `CC[C@@H](O)[C@H]1CNC[C@@H](N(CC(C)C)C(=O)c2nc3ccccc3n2CCCCOC)C1.Cl.Cl` [Example 75-2, N-{(3S,5R)-5-[(1R)-1-hydroxypropyl]piperidin-3-yl}-1-(4-methoxybutyl)-N-(2-methylpropyl)-1H-benzimidazole-2-carboxamide dihydrochloride]: the “Macaca fascicularis plasma renin activity: PPA inhibitory activity (%, n = 3-7)” value in experiment [1] came out at 71%. Besides, the inhibition at 0.1 µM at Human renin was determined as 90%.
